Laboratory results published in US9157067B2, “Pluripotent cells from mammalian late epiblast layer” (priority 2006, dated 2015).

How the values were obtained:
Assay type in all cases: cell-based
Rat EpiSCs = assay: Oct-4 immunostaining of rat EpiSCs grown in supplemented CDM; settings: for expression of the pluripotency marker Oct-4: after one week in CDM, 5B431542 10 uM, BMP4 10 ng/ml + 5B431542 10 uM, Activin 10 ng/ml + Noggin 100 ng/ml
Method: hESCs, mouse ESCs or EpiSCS were fixed for 20 minutes at 4° C. in 4% paraformaldehyde (PFA) and then washed three times in PBS. Cells were incubated for 20 minutes at room temperature in PBS containing 10% goat serum (Serotec) and subsequently incubated over night at 4° C. with primary antibody diluted in 1% goat serum in PBS as follows: SSEA-3 (1:100, Santa Cruz), SSAE-1 (1:25, gift from PW Andrews), Tra-1-60 (1:100, Santa CruZ), Oct-4 (1:100, SantaCruz), Sox2 (1:100, Abeam ab15830), Nanog (1:100, Abeam), Blirnpl (Abeam). Cells were then washed three times in PBS and incubated with fluorescein-Isothiocyanate-conjugated anti-mouse IgG or IgM (Sigma 1:200 in 1% goat serum in PBS) or rat IgM (Jackson laboratory 1:300 in goat serum in PBS) or rabbit IgG (Jackson laboratory 1:200 in donkey serum in PBS) for two hours at room temperature. Unbound secondary antibody was removed by 3 washes in PBS. Hoechst 33258 was added to the first wash (Sigma 1:10000).
Rat EpiSCs were grown in CDM supplemented in the presence of Activin (10 ng/ml), 5B431542 (10 uM), BMP4 10 ng/ml+5B431542 (10 uM) or Activin (10 ng/ml)+Noggin (IOOng/ml). After one week, the expression of the pluripotency marker Oct-4 was analysed using immunostaining. […] Similar results were obtained with mouse EpiSCs.

[1] = tested on: mouse late epiblast layer; assay: Derivation of EpiSC lines from mouse late epiblast layers; settings: dissected mouse epiblasts in CDM with BMP4 (50 ng/ml) and LIF
Method: Similar culture conditions were tested for derivation of pluripotent cells from pre- and post-implantation rodent embryos. […] For derivation at post implantation stages, the late epiblast layer of embryos at pre- or early gastrulation stages (5.5 dpc or 6.5 dpc) was separated from extraembryonic tissues by microdissection using Cell Dissociation Buffer (Invitrogen) at 4° C. for 15-20 min. to promote dissociation of the layers. […] After 24 hours, the epiblast layers formed colonies of compact cells having a high nucleo-cytoplasmic ratio, a characteristic morphological trait of pluripotent embryonic stem cells. Cells on the edge of the colony started to differentiate the following day, thereby producing a broad ring of stromal cells surrounding smaller aggregates of compact cells. These heterogeneous populations proceeded to form larger colonies of cells 4-5 days later. The latter colonies were picked, dissociated into smaller clumps using collagenase IV (Invitrogen) and then transferred to new dishes. Resulting colonies were passaged again 5 days later using collagenase and mechanical dissociation. […] These cells were designated Epiblast Stem Cells (EpiSCs) on the basis of their origin from pure epiblast cell layers.
Dissected mouse epiblasts were grown in CDM supplemented with BMP4 (50 ng/ml) and LIF, two growth factors required to maintain the pluripotent status of mouse ESCs.

rat epiblast layers = assay: Derivation of EpiSC lines from rat epiblast layers; settings: addition to CDM supplemented with Activin
Excerpt: The hypothesis that Activin and FGF signalling in pluripotency are conserved in mammalian development is supported by the ability of Activin/Nodal signalling to maintain long-term pluripotency of both human ESCs and mouse EpiSCs. As a further test of this hypothesis, we attempted to derive EpiSCs from rats, a species from which embryonic stem cell derivation has been problematic. Following the method we established in the mouse, epiblast layers were dissected from rat embryos at pre-gastrula stages (E 7.5-8.5) and grown on fibronectin-coated or FBS coated plates in CDM supplemented with Activin and FGF. […] Nevertheless, four EpiSC lines were derived out of 14 embryos of the Wistar strain and 1 EpiSC line was derived out of 20 embryos from the Sprague-Dawley strain using CDM supplemented with Activin alone.

Molecule | expression of the pluripotency marker Oct-4 (Rat EpiSCs) | derivation of EpiSC lines [1] | differentiation of early epiblast cultures (rat epiblast layers) | also measured
NC(=O)c1ccc(-c2nc(-c3ccccn3)c(-c3ccc4c(c3)OCO4)[nH]2)cc1 [5B431542, reference compound] | loss of Oct-4 expression |  |  | differentiation of EpiSCs (Rat EpiSCs; inhibition of Activin/Nodal signalling): induced rapid differentiation of EpiSCs
BMP4: growth factor required with LIF to maintain mouse ESC pluripotency | not able to rescue the pluripotent status of EpiSCs | not able to derive any EpiSC lines |  | 
EGF: growth factor added to rat epiblast cultures |  |  | induced differentiation | 
FGF2: fibroblast growth factor 2 |  |  | induced differentiation | 
HGF: growth factor added to rat epiblast cultures |  |  | induced differentiation | 
LIF: Leukaemia Inhibitory Factor |  | not able to derive any EpiSC lines |  | 
